Measurements from patent US10519138B2, “Modulators of SOCE, compositions, and uses thereof” (Università degli Studi del Piemonte Orientale “Amedeo …, priority 2016, dated 2019).

System: Store Operated Calcium Entry (SOCE) in BV-2 cells
Assay: Fluo-4 fluorimetric assay of tBHQ-induced store operated calcium entry in BV-2 cells
Assay type: cell-based, mouse
Conditions: Mus musculus, 10 μM, SOCE inhibition based on tBHQ-induced calcium influx
Description: (A) BV-2 cells were plated in poly-d-lysine coated 24-well plate and incubated overnight. After 24 hours, cells were loaded with 2 μM Fluo-4 and placed in an extracellular solution containing 0 mM Ca^2+. Stores were depleted with 50 μM tBHQ and calcium influx was stimulated by the addition of 2 mM Ca^2+ alone (Ctrl), or in conbination with: compound with no activity (NM-3A), and compounds that positively (4-(1-(4-(3,5-bis(trifluoromethyl)-1H-pyrazol-1-yl)phenyl)-1H-1,2,3-triazol-4-yl)benzoic acid) and negatively (3-(1-(4-(4-(ethoxycarbonyl)-5-(trifluoromethyl)-1H-pyrazol-1-yl)phenyl)-1H-1,2,3-triazol-4-yl)benzoic acid) regulate SOCE. Calcium responses are expressed as changes in fluorescence intensity before and after the addition of selected modulators. (B) BV-2 cells were assayed for a calcium response to different concentrations of 3-(1-(4-(4-(ethoxycarbonyl)-5-(trifluoromethyl)-1H-pyrazol-1-yl)phenyl)-1H-1,2,3-triazol-4-yl)benzoic acid and 4-(1-(4-(3,5-bis(trifluoromethyl)-1H-pyrazol-1-yl)phenyl)-1H-1,2,3-triazol-4-yl)benzoic acid (0.1-0.3-1-3-10-30-100 μM) using Fluo-4 fluorimetric assay. Concentration-response curves represent the AUC % of both compounds as compared to positive control.
Immortalized primary mouse microglial BV-2 cells were obtained from ATCC (ATCC® CRL-2540™, Rockville, Md., USA) and were cultured in Dulbecco's Modified Eagle's Medium (DMEM; Sigma-Aldrich, Italy), supplemented with 10% heat-inactivated FBS (Gibco, Italy), 1-glutamine 50 mg/mL (Sigma-Aldrich, Italy), penicillin 10 U/mL and streptomycin […] (Sigma-Aldrich, Italy) at 37° C., under a 5% CO2 humidified atmosphere. For experiments, the cells were plated 2×10^4 per ml in 24 well plates) or onto glass coverslips at concentrations of 4×10^4 per mL (24 mm diame-ter coverslips in 6 well plates).
BV-2 cells were loaded with 5 μM Fluo-4 AM in presence of 0.02% of Pluronic-127 (both from Life Technologies, Italy) and 10 μM sulfinpyrazone in Krebs-Ringer buffer (KRB, 135 mM NaCl, 5 mM KCl, 0.4 mM KH2PO4, 1 mM MgSO4, 5.5 mM glucose, 20 mM HEPES, pH 7.4) containing 2 mM CaCl2 (30 min, room temperature). Subsequently, cells were washed and incubated with KRB for other 30 min to allow de-esterification of Fluo-4 AM. Experiments were carried out prior to and during exposure of the cells to the Ca^2+-free solution. In the absence of Ca^2+, the intracellular Ca^2+ stores were depleted by 2,5-t-butylhydroquinone (tBHQ, 50 μM; Sigma-Aldrich, Italy), a SERCA poison, and then calcium 2 mM was re-added to the extracellular solution. Fluorescence is then monitored sequentially for a second in each well for 600 seconds with excitation at 494 nm and an emission wavelength at 516 nm on the V3 Victor plate-reader (Perkin Elmer), generating time-curves for each well. Data were analysed using Microsoft Excel and GraphPad Prism.
The percentage of SOCE inhibition for each compound was determined based on value of tBHQ-induced calcium influx into BV-2 cells (Table 2).

Point of comparison: `CCOC(=O)c1cnn(-c2ccc(-c3cn(-c4ccc(C(=O)O)cc4)nn3)cc2)c1C(F)(F)F` [4-(4-(4-(4-(ethoxycarbonyl)-5-(trifluoromethyl)-1H-pyrazol-1-yl)phenyl)-1H-1,2,3-triazol-1-yl)benzoic acid], inhibition at 10 µM 19.8%. Against it:
- CCOC(=O)c1cnn(-c2ccc(-n3cc(-c4cccc(N)c4)nn3)cc2)c1C(F)(F)F [ethyl 1-(4-(4-(3-aminophenyl)-1H-1,2,3-triazol-1-yl)phenyl)-5-(trifluoromethyl)-1H-pyrazole-4-carboxylate] — higher, 24.8%
- O=C(O)CCCn1cc(-c2ccc(-n3nc(C(F)(F)F)cc3C(F)(F)F)cc2)nn1 [4-(4-(4-(3,5-bis(trifluoromethyl)-1H-pyrazol-1-yl)phenyl)-1H-1,2,3-triazol-1-yl)butanoic acid] — lower, 18.3%
- CCCC(C)OC(=O)c1cnn(-c2ccc(-n3cc(-c4cccc(C(=O)O)c4)nn3)cc2)c1C(F)(F)F (stereo not shown) [3-(1-(4-(4-((pentan-2-yloxy)carbonyl)-5-(trifluoromethyl)-1H-pyrazol-1-yl)phenyl)-1H-1,2,3-triazol-4-yl)benzoic acid] — higher, 91.9%
- CCOC(=O)c1cnn(-c2ccc(-n3cc(-c4ccc(N)cc4)nn3)cc2)c1C(F)(F)F [ethyl 1-(4-(4-(4-aminophenyl)-1H-1,2,3-triazol-1-yl)phenyl)-5-(trifluoromethyl)-1H-pyrazole-4-carboxylate] — lower, 8.31%
- CCOC(=O)c1cnn(-c2ccc(-c3cn(-c4ccc(OC)c(OC)c4)nn3)cc2)c1C(F)(F)F [ethyl 1-(4-(1-(3,4-dimethoxyphenyl)-1H-1,2,3-triazol-4-yl)phenyl)-5-(trifluoromethyl)-1H-pyrazole-4-carboxylate] — lower, 12.8%
- COc1ccc(-n2cc(-c3ccc(-n4nc(C(F)(F)F)cc4C(F)(F)F)cc3)nn2)cc1OC [4-(4-(3,5-bis(trifluoromethyl)-1H-pyrazol-1-yl)phenyl)-1-(3,4-dimethoxyphenyl)-1H-1,2,3-triazole] — lower, 5.7%
- CCOC(=O)c1cnn(-c2ccc(-c3cn(-c4cccnc4)nn3)cc2)c1C(F)(F)F [ethyl 1-(4-(1-(pyridin-3-yl)-1H-1,2,3-triazol-4-yl)phenyl)-5-(trifluoromethyl)-1H-pyrazole-4-carboxylate] — higher, 37.4%
- CCOC(=O)c1cnn(-c2ccc(-c3cn(-c4ccncc4)nn3)cc2)c1C(F)(F)F [ethyl 1-(4-(1-(pyridin-4-yl)-1H-1,2,3-triazol-4-yl)phenyl)-5-(trifluoromethyl)-1H-pyrazole-4-carboxylate] — higher, 20%
- CCOC(=O)c1cnn(-c2ccc(-n3cc(-c4ccc(OC)c(OC)c4)nn3)cc2)c1C(F)(F)F [ethyl 1-(4-(4-(3,4-dimethoxyphenyl)-1H-1,2,3-triazol-1-yl)phenyl)-5-(trifluoromethyl)-1H-pyrazole-4-carboxylate] — lower, 17.2%
- CCOC(=O)c1cnn(-c2ccc(-n3cc(-c4cccc(C(=O)OC)c4)nn3)cc2)c1C(F)(F)F [ethyl 1-(4-(4-(3-(methoxycarbonyl)phenyl)-1H-1,2,3-triazol-1-yl)phenyl)-5-(trifluoromethyl)-1H-pyrazole-4-carboxylate] — higher, 21.8%
- COc1ccc(-n2cc(-c3ccc(-n4nc(C(F)(F)F)cc4C(F)(F)F)cc3)nn2)cc1 [4-(4-(3,5-bis(trifluoromethyl)-1H-pyrazol-1-yl)phenyl)-1-(4-methoxyphenyl)-1H-1,2,3-triazole] — higher, 21.3%
- FC(F)(F)c1cc(C(F)(F)F)n(-c2ccc(-n3cc(-c4ccccc4)nn3)cc2)n1 [1-(4-(3,5-bis(trifluoromethyl)-1H-pyrazol-1-yl)phenyl)-4-phenyl-1H-1,2,3-triazole] — lower, 0.84%
- O=C(O)CCCc1cn(-c2ccc(-n3nc(C(F)(F)F)cc3C(F)(F)F)cc2)nn1 [4-(1-(4-(3,5-bis(trifluoromethyl)-1H-pyrazol-1-yl)phenyl)-1H-1,2,3-triazol-4-yl)butanoic acid] — higher, 19.9%
- CCOC(=O)c1cnn(-c2ccc(-n3cc(-c4ccccc4)nn3)cc2)c1C(F)(F)F [ethyl 1-(4-(4-phenyl-1H-1,2,3-triazol-1-yl)phenyl)-5-(trifluoromethyl)-1H-pyrazole-4-carboxylate] — lower, 14.3%
- Oc1cccc(-c2cn(-c3ccc(-n4nc(C(F)(F)F)cc4C(F)(F)F)cc3)nn2)c1 [3-(1-(4-(3,5-bis(trifluoromethyl)-1H-pyrazol-1-yl)phenyl)-1H-1,2,3-triazol-4-yl)phenol] — lower, 4.06%
- CCOC(=O)c1cnn(-c2ccc(-n3cc(-c4cccc(O)c4)nn3)cc2)c1C(F)(F)F [ethyl 1-(4-(4-(3-hydroxyphenyl)-1H-1,2,3-triazol-1-yl)phenyl)-5-(trifluoromethyl)-1H-pyrazole-4-carboxylate] — lower, 3.53%
- CCOC(=O)c1cnn(-c2ccc(-n3cc(-c4ccc(OC)cc4)nn3)cc2)c1C(F)(F)F [ethyl 1-(4-(4-(4-methoxyphenyl)-1H-1,2,3-triazol-1-yl)phenyl)-5-(trifluoromethyl)-1H-pyrazole-4-carboxylate] — lower, 4.77%
- CCOC(=O)c1cnn(-c2ccc(-c3cn(-c4ccc(OC)cc4)nn3)cc2)c1C(F)(F)F [ethyl 1-(4-(1-(4-methoxyphenyl)-1H-1,2,3-triazol-4-yl)phenyl)-5-(trifluoromethyl)-1H-pyrazole-4-carboxylate] — lower, 16.9%
- CCOC(=O)c1cnn(-c2ccc(-n3cc(-c4ccccc4NC(C)=O)nn3)cc2)c1C(F)(F)F [ethyl 1-(4-(4-(2-acetamidophenyl)-1H-1,2,3-triazol-1-yl)phenyl)-5-(trifluoromethyl)-1H-pyrazole-4-carboxylate] — higher, 28%
- CCOC(=O)c1cnn(-c2ccc(-c3cn(-c4cccc(N)c4)nn3)cc2)c1C(F)(F)F [ethyl 1-(4-(1-(3-aminophenyl)-1H-1,2,3-triazol-4-yl)phenyl)-5-(trifluoromethyl)-1H-pyrazole-4-carboxylate] — higher, 23%
- CCOC(=O)c1cnn(-c2ccc(-n3cc(-c4cccc(C(N)=O)c4)nn3)cc2)c1C(F)(F)F [ethyl 1-(4-(4-(3-carbamoylphenyl)-1H-1,2,3-triazol-1-yl)phenyl)-5-(trifluoromethyl)-1H-pyrazole-4-carboxylate] — lower, 2.27%
